Experimental data published in ChEMBL document CHEMBL3044824, “Synthesis and Acaricidal Activity of 1-Arylmethyl-2-arylimidazolidines” (2001).

How the values were obtained:
Type in all cases: functional
[1] = tested on: Tetranychus urticae; assay: Acaricidal activity against Tetranychus urticae (two-spotted spider mite) in second leaf stage of Phaseolus vulgaris var. Serena assessed as mortality at 200 ppm after 7 days
[2] = tested on: Tetranychus urticae; assay: Acaricidal activity against Tetranychus urticae (two-spotted spider mite) in second leaf stage of Phaseolus vulgaris var. Serena assessed as mortality at 500 ppm after 7 days
[3] = tested on: Tetranychus urticae; assay: Acaricidal activity against Tetranychus urticae (two-spotted spider mite) in second leaf stage of Phaseolus vulgaris var. Serena assessed as mortality at 50 ppm after 7 days
[4] = tested on: Tetranychus urticae; assay: Acaricidal activity against Tetranychus urticae (two-spotted spider mite) in second leaf stage of Phaseolus vulgaris var. Serena assessed as mortality at 100 ppm after 7 days

| SMILES | Activity [1] [%] | Activity [2] [%] | Activity [3] [%] | Activity [4] [%] |
| --- | --- | --- | --- | --- |
| Clc1cccc(Cl)c1CN1CCN=C1c1ccccc1 | 25 | >80 | – | – |
| c1ccc(CN2CCN=C2c2ccccc2)cc1 | 25 | 50 | – | – |
| Clc1ccc(CC2=NCCN2Cc2ccc(Cl)cc2)cc1 | – | <24 | – | – |
| Cc1ccc(CN2CCN=C2c2ccccc2)cc1 | – | <24 | – | – |
| Clc1ccc(CN2CCN=C2c2ccccc2)cc1 | >80 | >80 | >80 | >80 |
| c1ccc(CCN2CCN=C2c2ccccc2)cc1 | – | 25 | – | – |
| Clc1ccc(C2=NCCN2Cc2ccccc2)cc1 | – | <24 | – | – |
| Clc1ccccc1C1=NCCN1Cc1ccccc1 | 50 | >80 | – | 25 |
| Clc1ccccc1CN1CCN=C1c1ccccc1 | 50 | >80 | – | 25 |
| Clc1ccc(CN2CCN=C2c2ccccc2)cn1 | <24 | 50 | – | – |
| Clc1ccc(CN2CCCN=C2c2ccccc2)cc1 | 25 | 50 | – | – |
| c1ccc(C2=NCCN2Cc2ccc(-c3ccccc3)cc2)cc1 | >80 | >80 | 25 | 50 |
| COc1ccc(CN2CCN=C2c2ccccc2)cc1 | – | <24 | – | – |
| Clc1ccc(CN2CCN=C2c2cccnc2)cc1 | >80 | >80 | 25 | 50 |
| c1ccc(CC2=NCCN2Cc2ccccc2)cc1 | – | <24 | – | – |
| c1ccc(C2=NCCN2Cc2ccncc2)cc1 | 50 | >80 | – | >80 |
| Fc1cccc(F)c1C1=NCCN1Cc1ccccc1 | >80 | >80 | >80 | >80 |
| c1ccc(C2=NCCN2Cc2cccnc2)cc1 | 50 | >80 | – | 25 |
| CC(C)(C)c1ccc(CN2CCN=C2c2ccccc2)cc1 | 50 | >80 | – | 25 |
| c1ccc(CN2CCN=C2c2cccnc2)cc1 | – | 25 | – | – |
| c1ccc(C2=NCCN2c2ccccc2)cc1 | – | <24 | – | – |
| Clc1ccc(CN2CCN=C2c2ccccc2)c(Cl)c1 | – | 25 | – | – |
| Clc1cccc(CN2CCN=C2c2ccccc2)c1 | 25 | >80 | – | – |
| CC1(C)CN=C(c2ccccc2)N(Cc2ccc(Cl)cc2)C1 | 50 | >80 | – | 25 |
| c1cncc(CN2CCN=C2c2cccnc2)c1 | 50 | >80 | – | 25 |
| Clc1cccc(C2=NCCN2Cc2ccccc2)c1 | – | <24 | – | – |
| Fc1cccc(F)c1C1=NCCN1Cc1ccc(Cl)cc1 | >80 | >80 | 25 | >80 |
| Clc1ccc(CN2CCN=C2c2cccnc2)cn1 | 25 | 50 | – | – |
